Experimental data from US12263248B2, “Compounds and compositions for intracellular delivery of therapeutic agents” (ModernaTX, Inc., priority 2018, dated 2025).

Key:
luciferase (Luc) mRNA [1] = test: Luc expression (total flux) after intramuscular administration; format: in vivo, mice; conditions: for Total flux, 0.01 mpk Dose / Total flux, 0.001 mpk Dose: 6 hours after intramuscular administration, Luc mRNA and H10 mRNA; for Novel lipid/MC3 expression ratio, 6 hr. time point, i.m. Luc: relative to MC3 formulation
Method in brief: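 Total-flux luciferase signal in mice after one intramuscular injection. Nanoparticle formulations contained modified Luc mRNA, either alone or co-dosed with H10 mRNA (e.g., 0.0005 or 0.005 mpk of each), giving 0.001 or 0.01 mpk.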

[2] = Particle size and polydispersity index of nanoparticle compositions (Zetasizer Nano ZS); format: physicochemical
Method in brief: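 Zetasizer Nano ZS; samples in 1×PBS; read-out: particle size plus polydispersity index.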

IL-6, IP-10 = test: Cytokine induction in mice upon intravenous administration; format: in vivo; set-up: Cytokine induction IL-6 / Cytokine induction IP-10: unit not given here; conditions: 0.5 mpk, 6 hours; for IP-10 induction / IL-6 induction: i.v., in words; for Cytokine induction IL-6 / Cytokine induction IP-10: intravenous
Method in brief: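 IL-6 and IP-10 concentrations determined 6 hours after a single intravenous 0.5 mpk dose of lipid nanoparticle formulation in mice, with MC3 and PBS as comparators.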

[3] = Apparent (surface) pKa of the LNP formulation (TNS assay); format: physicochemical
Method in brief: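 Fluorescence of TNS probe added to LNP samples (mRNA 0.04 mg/mL) was read across 21 buffers of pH about 3-12, triplicate per pH. The inflection point of the sigmoidal fluorescence-vs-pH curve, […], gives apparent pKa; method validated in 1× PBS and Tris/sucrose buffer.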

luciferase (Luc) mRNA [4] = test: Luc expression in liver, lung, spleen and femur 6 hours after intravenous administration; format: in vivo; conditions: mice, 0.5 mpk; for Total Flux Femur / Total Flux Liver / Total Flux Lung / Total Flux Spleen: intravenous
Method in brief: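 LNP-formulated mRNA given IV to mice (n=3) at 0.5 mpk; at 6 h, bioluminescence imaged ex vivo 15 min after IP D-luciferin (15 mg/mL, 200 μL), organs imaged within 25 min. Values are total flux by region of interest.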

[5] = Table 1A, lipid:DSPC:cholesterol:PEG-DMG 50:10:38.5:1.5 mol %
[6] = Table 1B, formulated with hEPO mRNA
[7] = Table 1D, for subcutaneous administration, # formulated with hEPO mRNA
[8] = lipid nanoparticle, ±SD within one assay run (Table 37)
[9] = nanoparticle composition with mRNA encoding anti-HA antibody (Table 33)
[10] = nanoparticle of rat tolerability study (Table 43)
[11] = Table 1C, compositions for subcutaneous administration
[12] = Table 1E, compositions for subcutaneous administration

Row | SMILES | Total flux, 0.01 mpk Dose (luciferase (Luc) mRNA [1]; 0.01 mpk) | PDI ([2]; Table 1A) | Size (nm) [2, 5] | IP-10 induction (IL-6, IP-10) | Cytokine induction IL-6 (IL-6, IP-10) | Cytokine induction IP-10 (IL-6, IP-10) | pKa ([3]; Table 1A) | Total Flux Femur (luciferase (Luc) mRNA [4]) | Total Flux Liver (luciferase (Luc) mRNA [4]) | Total Flux Lung (luciferase (Luc) mRNA [4]) | Total Flux Spleen (luciferase (Luc) mRNA [4]) | Total flux, 0.001 mpk Dose (luciferase (Luc) mRNA [1]) | further results
1 | CCCCCCCCCOC(=O)CCCCCCCN(CCO)CCCCCCCC(=O)OC(CCCCCCCC)CCCCCCCC [Compound 18, Heptadecan-9-yl 8-((2-hydroxyethyl)(8-(nonyloxy)-8-oxooctyl)amino)octanoate] | 8.84E+07 p/s | 018 | 87.9 nm | lowest | 78.76 | 139.92 | 6.56 | 4.68E+06 | 2.76E+09 | 1.25E+07 | 5.15E+07 | – | Fold increase in Luc expression relative to MC3, Intramuscular (0.01 mpk dose) (luciferase (Luc) mRNA [1]; intramuscular, 0.01 mpk): 2.01; PDI [2, 6]: 0.14; Size (nm) [2, 6]: 73.7 nm; PDI [2, 7]: 0.11; Size (nm) [2, 7]: 75.0 nm; PDI (Polydispersity index) [2, 8]: 0.04 ± 0.06; PDI ([2]; lipid:DSPC:Chol:PEG-DMG (50:10:38.5:1.5), hEPO mRNA): 0.095; PDI ([2]; nanoparticle composition with hEPO mRNA (Table 30)): 0.230; Diameter [2, 9]: 76.8 nm; PDI [2, 9]: 0.16; Diameter [2, 10]: 80 nm; PDI [2, 10]: 0.19; pKa ([3]; Table 6): 6.56; pKa [3, 8]: 6.56 ± 0.13
2 | CCCCCCCCCOC(=O)CCCCCCCN(CCCCCCCC(=O)OC(CCCCCCCC)CCCCCCCC)C[C@H](C)O [Compound 12, Heptadecan-9-yl (S)-8-((2-hydroxypropyl)(8-(nonyloxy)-8-oxooctyl)amino)octanoate] | 8.90E+05 p/s | 0.17 | 116.7 nm | lowest | 3.88 | 32.03 | 5.99 | – | 6.84E+08 | 7.45E+06 | 6.82E+07 | 8.02E+04 p/s | IL-6 induction (IL-6, IP-10): lowest
3 | CCCCCCCCCOC(=O)CCCCCCCN(CCO)CCCCCCCOC(=O)C(CCCCCCCC)CCCCCCCC [Compound 30, 7-((2-Hydroxyethyl)(8-(nonyloxy)-8-oxooctyl)amino)heptyl 2-octyldecanoate] | 3.77E+07 p/s | 0.15 | 59.4 nm | – | 152.51 | 1638.77 | 6.75 | 6.38E+06 | 2.68E+09 | 1.02E+07 | 3.55E+07 | 2.47E+06 p/s | Novel lipid/MC3 expression ratio, 6 hr. time point, i.m. Luc (luciferase (Luc) mRNA [1]; intramuscular): 4.69; PDI [2, 6]: 0.13; Size (nm) [2, 6]: 76.3 nm; PDI [2, 11]: 0.12; Size (nm) [2, 11]: 81.7 nm; PDI [2, 7]: 0.11; Size (nm) [2, 7]: 89.8 nm; Apparent pKa ([3]; Table 3G): 6.75
4 | CCCCCCCCCOC(=O)CCCCCCCN(CCO)CCCCCC(=O)OC(CCCCCCCC)CCCCCCCC [Compound 27, Nonyl 8-((6-(heptadecan-9-yloxy)-6-oxohexyl)(2-hydroxyethyl)amino) octanoate] | 3.17E+07 p/s | 0.18 | 82.3 nm | – | 161.07 | 345.56 | 6.78 | 2.00E+06 | 2.16E+09 | 6.35E+06 | 3.78E+06 | 2.55E+06 p/s | –
5 | CCCCCCCCCN(CCCO)CCCCCCCC(=O)OC(CCCCCCCC)CCCCCCCC [Compound 7, Heptadecan-9-yl 8-((3-hydroxypropyl)(nonyl)amino)octanoate] | 7.48E+07 p/s | 0.22 | 118.9 nm | highest | 116.35 | 4959.16 | 6.75 | – | 2.49E+09 | 3.95E+07 | 4.83E+08 | 3.65E+06 p/s | App. pKa ([3]; Table 3F): 6.74; Flux in the spleen (luciferase (Luc) mRNA [4]; i.v., in words): highest
6 | CCCCCCCCCOC(=O)CCCCCCCN(CCCO)CCCCCCCC(=O)OC(CCCCCCCC)CCCCCCCC [Compound 19, Heptadecan-9-yl 8-((3-hydroxypropyl)(8-(nonyloxy)-8-oxooctyl)amino) octanoate] | 2.96E+07 p/s | 0.17 | 101.1 nm | – | 285.56 | 1468.94 | 6.78 | 1.68E+06 | 6.33E+08 | 5.99E+06 | 1.77E+07 | 3.28E+06 p/s | Novel lipid/MC3 expression ratio, 6 hr. time point, i.m. Luc (luciferase (Luc) mRNA [1]; intramuscular): 3.68; PDI [2, 12]: 0.13; Size (nm) [2, 12]: 80.7 nm; IL-6 induction (IL-6, IP-10): highest
7 | CCCCCCCCCCCCCCN(CCO)CCCCCCCC(=O)OC(CCCCCCCC)CCCCCCCC [Compound 2, Heptadecan-9-yl 8-((2-hydroxyethyl)(tetradecyl)amino)octanoate] | 6.16E+07 p/s | 0.14 | 83.9 nm | – | 70.95 | 468.86 | 6.73 | 3.86E+06 | 4.87E+09 | 2.52E+07 | 5.77E+07 | 3.55E+06 p/s | –
8 | CCCCCCCCC(CCCCCCCC)OC(=O)CCCCCCCN(CCO)CCCCCC [Compound 5, Heptadecan-9-yl 8-(hexyl(2-hydroxyethyl)amino)octanoate] | 3.55E+06 p/s | 0.21 | 196.4 nm | – | 94.07 | 487.16 | 6.84 | 1.22E+06 | 5.84E+07 | 1.89E+06 | 1.55E+08 | 9.84E+05 p/s | –
9 | CCCCCCCC/C=C\COC(=O)CCCCCN(CCO)CCCCCC(=O)OC/C=C\CCCCCCCC [Compound 140, Di((Z)-undec-2-en-1-yl) 6,6′-((2-hydroxyethyl)azanediyl)dihexanoate] | 6.09E+05 p/s | 0.84 | 120.3 nm | – | 282.82 | 187.83 | 7.71 | 3.26E+04 | 4.21E+05 | 2.14E+04 | 2.22E+05 | 2.03E+05 p/s | –
